One assay deals with cytokine production. Nature of the assay: in vitro cytokine production (cellular assay). The format is cell-based. Particulars: assay not described.
In another assay the test system is T-cell proliferation. Nature of the assay: in vitro T-cell proliferation (cellular assay). It is filed as cell-based. Particulars: assay not described.
Another assay concerns TNFα and IL-1β levels. The assay is described as follows: LPS Mouse Assay. The format is in vivo, Balb-c mice. As for the experimental part:
7 week old Balb-c mice (n=8) fed and watered ad libitum were dosed at time zero with the compound of Example 1 at 3, 30 and 300 mg/kg in a 1% methylcellulose vehicle by oral gavage (10 ml/kg). 30 minutes after drug treatment mice were intraperitoneally administered with 1 mg/kg LPS (5 ml/kg in normal saline). 2 hours post-LPS challenge blood samples were collected by cardiac puncture under isoflurane anaesthesia. Blood samples were allowed to clot at room temperature for 10 minutes and then put on ice until spun at 6000 g for 3 minutes at 4° C. and then stored at −20° C. until analysis by ELISA for TNFα and IL-1β levels. TNFα and IL-1β levels were reported as pg/ml of serum (mean±SEM) significance was evaluated by a Dunnett's test followed by a Kruskal-Wallis one way analysis followed by a Dunn's test.

In assay [1] the test system is clinical signs induced in the EAE model. Nature of the assay: Experimental Autoimmune Encephalitis (EAE). It is filed as in vivo, Male Lewis rats. To be noted: 150 mg/kg orally twice a day from the day of inoculation; scored daily from day 7 post-inoculation. On the procedure: Experimental Autoimmune Encephalitis (EAE)
Male Lewis rats (250-290 g) (n=10) were injected into both rear foot-pad with 0.1 ml of an emulsion containing equal parts of guinea-pig spinal cord, phosphate buffered saline and incomplete Freund's adjuvant with 8 mg/ml Mycobacterium tuberculosis H37Ra. The compound of Example 1 (150 mg/kg) was dosed orally in a 10% acacia gum vehicle (1 ml/kg) twice a day from the day of inoculation.
Body weights and neurological scores were observed daily from day 7 post-inoculation. The total daily score was calculated for each group and plotted over time. Non-parametric statistical analyses (Kruskal-Wallis) one-way analysis, followed by a Dunn's test, were employed.

Take `O=C(O)c1cc(O)c2c(c1)C(=O)c1cccc(O)c1C2=O` [rhein, 1,8-dihydroxyanthraquinone-3-carboxylic acid]: in the assay on cytokine production, the “inhibition of cytokine production” value is reported as “fail to produce a response”. Also, in the assay on T-cell proliferation, the “inhibition of T-cell proliferation” value is on record as “fail to produce a response”.
In the case of `O=C(O)c1cc(OC(=O)C2CCOCC2)c2c(c1)C(=O)c1cccc(OC(=O)C3CCOCC3)c1C2=O` [Example 1, 4,5-Bis(tetrahydropyran-4-carbonyloxy)-9,10-dioxo-dihydroanthracene-2-carboxylic acid], the “efficacy in the LPS mouse model (summary statement)” value with TNFα and IL-1β levels (mouse, in vivo) is on record as “efficacy”. Moreover, in the assay on TNFα and IL-1β levels (serum, ELISA, 3, 30 and 300 mg/kg by oral gavage 30 minutes before 1 mg/kg LPS i.p., blood 2 hours post-LPS, all three doses, dose-dependant), the “reduction of TNFα levels post-LPS insult” value was “significant efficacy on reducing TNFα levels”. Further, the “reduction of IL-1β levels post-LPS” value with TNFα and IL-1β levels (serum, ELISA, oral gavage 30 minutes before 1 mg/kg LPS i.p., blood 2 hours post-LPS, at the top two doses (30 and 300 mg/kg)) is recorded as “reduced IL-1β levels”. Further, the “efficacy on clinical signs (neurological scores) in the EAE model” value in assay [1] is given as “significant efficacy”.

The values are drawn from patent publication US7728035B2, “Ester derivatives of rhein and their therapeutic use” (Sosei R&D Ltd., priority 2004, dated 2010).
